{"source": "patent US9289463B2", "about": "“Octreotide-modified nanomedicine for cancer treatment or cancer palliative care” (NANOSION CO., LTD., priority 2010, dated 2016)", "key": {"TT cells [1]": {"tested_on": "TT cells", "test": "Competitive inhibition test of intracellular uptake", "assay_type": "cell-based, human", "conditions": "free Oct in 20-fold molar excess (84 nmol/ml), 37° C., 2 hours", "experimental": "A competitive inhibition test was conducted to examine whether or not the intracellular uptake observed in Example 2 takes place via somatostatin receptor (SSTR).\nThe competitive inhibition is shown schematically in FIG. 2(A)."}, "TT cells [2]": {"tested_on": "TT cells", "test": "Cytotoxicity test using non-drug-encapsulating liposomes", "assay_type": "cell-based, human", "conditions": "0.042-8.4 μM Oct, 96 hours, no drug encapsulated", "experimental": "Next, a cytotoxicity test was conducted using non-CPT-11-encapsulating liposomes, in order to evaluate the effect of the ligand (Oct) on cytotoxicity. […] After rinsing the cells with PBS, a coloring reagent was added and the absorbance at 450 nm was measured.\nIn FIG. 4, the four bars for each concentration are, from the left, the cell survival rates (%) for free Oct, Empty 1.6Oct-CL, Empty 4.4Oct-CL and Empty SL, respectively."}, "TT cells [3]": {"tested_on": "TT cells", "test": "Cytotoxicity test using CPT-11-encapsulating liposomes", "assay_type": "cell-based", "conditions": "Homo sapiens", "experimental": "TT cells were seeded into a 96-well plate at a density of 10^4 cells/well, and free CPT-11, 1.6Oct-CL or SL was added thereto at various concentrations prior to incubation for 48 hours, 72 hours and 96 hours. Next, after rinsing the cells with PBS, a coloring reagent (Cell Counting kit-8, Dojindo Laboratories) was added at 10 μL per well (100 μL), the absorbance at 450 nm was measured and IC50 (μM) was calculated."}, "TT cells [4]": {"tested_on": "TT cells", "test": "Effect of CPT-11-encapsulating liposomes in vivo, TT cell tumor-bearing mice (four mice per group)", "experimental": "The following test was conducted to examine the in vivo effect of CPT-11-encapsulating Oct-modified liposomes. After transplanting 10^7 TT cells into mice (ICR nu/nu mice, 6-week-old, female, Oriental Yeast Co., Ltd.), tumors with tumor volumes of […] formed. To four mice in each group there were administered unmodified liposomes (CL) at 10 mg/kg body weight, as the CPT-11 amount, liposomes modified with 1.6 mol % Oct-PEG-DSPE (1.6Oct-CL), and liposomes modified with 1.6 mol % Oct-PEG-DSPE and 0.9% mol % PEG-DSPE (1.6Oct-SL). The administration was twice (1st and 4th days) through the caudal vein. As a control there was administered physiological saline and free CPT-11 (30 mg/kg), three times (1st, 4th and 7th days). The tumor size and body weight were periodically measured. […] The column headed “% ILS” in Table 3 contains the values calculated by the formula: [(mean survival days of treated group)−(mean survival days of control group)/(mean survival days of control group)]×100(%), with physiological saline as the control. The column headed “Median” in Table 3 contains the median values for survival time (days) for each group consisting of N animals."}, "[5]": {"conditions": "liposomes 10 mg/kg as CPT-11 twice, free CPT-11 30 mg/kg three times"}}, "data": [{"smiles": "C[C@@H](O)[C@@H]1NC(=O)[C@H](CCCCN)NC(=O)[C@@H](Cc2c[nH]c3ccccc23)NC(=O)[C@H](Cc2ccccc2)NC(=O)[C@@H](NC(=O)[C@H](N)Cc2ccccc2)CSSC[C@@H](C(=O)N[C@H](CO)[C@@H](C)O)NC1=O", "note": "[free Oct, octreotide]", "values": [{"measurement": "effect of competitor on intracellular uptake of DXR-encapsulating 1.6Oct-CL", "setting": "TT cells [1]", "value": "did not affect"}, {"measurement": "cytotoxicity (cell survival rate)", "setting": "TT cells [2]", "value": "Cytotoxicity was observed"}]}, {"smiles": "CCc1c2c(nc3ccc(OC(=O)N4CCC(N5CCCCC5)CC4)cc13)-c1cc3c(c(=O)n1C2)COC(=O)[C@]3(O)CC", "note": "[Free CPT-11, irinotecan]", "values": [{"measurement": "IC50", "setting": "TT cells [3]; 48 hrs incubation", "value": 13.4, "unit": "µM"}, {"measurement": "IC50", "setting": "TT cells [3]; 72 hrs incubation", "value": 6.6, "unit": "µM"}, {"measurement": "IC50", "setting": "TT cells [3]; 96 hrs incubation", "value": 2.2, "unit": "µM"}, {"measurement": "Survival time Median", "setting": "TT cells [4]; liposomes 10 mg/kg as CPT-11, caudal vein, 1st and 4th days, free CPT-11 30 mg/kg, 1st, 4th and 7th days", "value": "88 (4) days"}, {"measurement": "survival time and survival rate (life-lengthening effect)", "setting": "TT cells [4]; [5]", "value": "no life-lengthening effect was observed"}, {"measurement": "tumor size", "setting": "TT cells [4]; [5]", "value": "tumor size increased"}, {"measurement": "Survival time % ILS", "setting": "TT cells [4]; physiological saline as control, liposomes 10 mg/kg as CPT-11 twice, free CPT-11 30 mg/kg three times", "value": 30.4, "unit": "%"}]}]}
